3 compounds from publication PMC9570109, “Improved Trimethylangelicin Analogs for Cystic Fibrosis: Design, Synthesis and Preliminary Screening” (International Journal of Molecular Sciences, 2022) can be followed below.

The experiment has as its target T1, F508del CFTR (Homo sapiens, UniProt P13569, DEL508-508).
T1 construct: expressed in transfected cells; host or cells: CFBE41o- cells overexpressing F508del CFTR and HS-YFP (YFP-H148Q/I152L), a gift from N. Pedemonte, Gaslini Institute
Description: F508del CFTR functional rescue (corrector) HS-YFP single-cell assay. The class given is cell-based. Conditions: CFBE41o- YFP-F508del cells; for F508del CFTR rescue (corrector) activity: 48 h incubation, 200 nM. The protocol: To verify the possibility that the title compounds may act as correctors in CFBE41o-, overexpressing F508del and the high sensitivity halide-sensing yellow fluorescent protein (HS-YFP) YFP-H148Q/I152L, we examined the effect of 48 h preincubation with vehicle or the TMA analogs or TMA or VX809 (Lumacaftor), as a positive control.
At the time of the assay, the correction of the F508del-CFTR function was evaluated in single-cell analysis by measuring the decrease in YFP fluorescence after the concomitant addition of extracellular iodide and the activating cocktail (20 μM forskolin and 5 μM VX770), in the presence or absence of the 10 μM CFTR inhibitor, CFTRinh-172. […] At least two derivatives show CFTR activity similar to that of the parent TMA.
The effect of TMA analogs on CFTR function was tested in CFBE41o- overexpressing F508del and the high sensitivity halide-sensing yellow fluorescent protein (HS-YFP) YFP-H148Q/I152L (a generous gift from N. Pedemonte, Gaslini Institute, Genova, Italy). YFP CF cells were seeded on round glass coverslips and preincubated for 48 h with vehicle or test compounds or VX809 or TMA. At the time of the assay, cells were washed in Dulbecco’s PBS (in mM: 137 NaCl, 2.7 KCl, 8.1 Na2HPO4, 1.5 KH2PO4, 1 CaCl2, and 0.5 MgCl2, pH 7.4) and subsequently incubated with a stimulation cocktail (20 μM forskolin and 5 μM VX770) in the presence and absence of 10 μM CFTR inhibitor, CFTRInh-172 (Sigma), for 30 min. The coverslips were then transferred on a Nikon TMD inverted microscope through a Nikon Fluor 40 objective. The signal was acquired with a Hamamatsu C2400–97 charge-coupled intensified video camera at a rate of 1 frame/3 s. The fluorescence coming from every single cell was analyzed by custom software (Spin, Vicenza, Italy). The results are presented as transformed data to obtain the percentage signal variation (Fx) relative to the time of addition of the stimulus, according to the equation: Fx = ([Ft − Fo]/Fo) × 100, where Ft and Fo are the fluorescence values at time t and at the time of stimulus addition, respectively. The assay of each sample consists of a continuous 99-s fluorescence reading with 30 s before and 69 s after injection of the iodide-rich Dulbecco’s PBS (in mM: 137 NaI, 2.7 KCl, 8.1 Na2HPO4, 1.5 KH2PO4, 1 CaCl2, and 0.5 MgCl2, pH 7.4) to reach a final iodide concentration of 50 mM [20]. The different sensitivity of HS-YFP toward iodide and chloride allows assays to be performed by measuring the transport of anions through the plasma membrane as changes in cell fluorescence. For this assay, cells expressing HS-YFP are equilibrated in a physiological chloride-rich saline solution (e.g., Dulbecco’s PBS). During fluorescence reading, cells are exposed to a high concentration of iodide. Iodide influx quenches the cell fluorescence with a rate that depends on the permeability of the cell membrane to halides, and therefore, on the activity of the anion channels or transporters.
Figure 4 Evaluation of different TMA analogs as F508del CFTR correctors in CFBE41o- YFP-F508del cells. Correction of F508del-CFTR function was assessed, in a single cell, by measuring the decrease in YFP fluorescence upon addition of extracellular iodide and with the activating cocktail, in the presence or absence of CFTR inhibitor, CFTRInh-172. Iodide influx was tested under control condition (vehicle) or after 48 h incubation with the correctors 200 nM or 1 μM VX809. The YFP fluorescence decay rate was calculated by fitting the fluorescence data with an exponential function of time courses. CFTR activity was obtained by the difference between the fluorescence decay rate of YFP in the presence and absence of CFTRInh-172. Fluorescence coming from every single cell of at least five cells per field was recorded. Each bar corresponds to the mean ± SEM of data points coming from at least three different experiments (5–10 different cells/each experiment). […]

Structures are written as SMILES. Entries after “also recorded” stand apart in the source; their conditions may differ.

T1 sequence (P13569 with tags, fused parts or gaps DEL508-508): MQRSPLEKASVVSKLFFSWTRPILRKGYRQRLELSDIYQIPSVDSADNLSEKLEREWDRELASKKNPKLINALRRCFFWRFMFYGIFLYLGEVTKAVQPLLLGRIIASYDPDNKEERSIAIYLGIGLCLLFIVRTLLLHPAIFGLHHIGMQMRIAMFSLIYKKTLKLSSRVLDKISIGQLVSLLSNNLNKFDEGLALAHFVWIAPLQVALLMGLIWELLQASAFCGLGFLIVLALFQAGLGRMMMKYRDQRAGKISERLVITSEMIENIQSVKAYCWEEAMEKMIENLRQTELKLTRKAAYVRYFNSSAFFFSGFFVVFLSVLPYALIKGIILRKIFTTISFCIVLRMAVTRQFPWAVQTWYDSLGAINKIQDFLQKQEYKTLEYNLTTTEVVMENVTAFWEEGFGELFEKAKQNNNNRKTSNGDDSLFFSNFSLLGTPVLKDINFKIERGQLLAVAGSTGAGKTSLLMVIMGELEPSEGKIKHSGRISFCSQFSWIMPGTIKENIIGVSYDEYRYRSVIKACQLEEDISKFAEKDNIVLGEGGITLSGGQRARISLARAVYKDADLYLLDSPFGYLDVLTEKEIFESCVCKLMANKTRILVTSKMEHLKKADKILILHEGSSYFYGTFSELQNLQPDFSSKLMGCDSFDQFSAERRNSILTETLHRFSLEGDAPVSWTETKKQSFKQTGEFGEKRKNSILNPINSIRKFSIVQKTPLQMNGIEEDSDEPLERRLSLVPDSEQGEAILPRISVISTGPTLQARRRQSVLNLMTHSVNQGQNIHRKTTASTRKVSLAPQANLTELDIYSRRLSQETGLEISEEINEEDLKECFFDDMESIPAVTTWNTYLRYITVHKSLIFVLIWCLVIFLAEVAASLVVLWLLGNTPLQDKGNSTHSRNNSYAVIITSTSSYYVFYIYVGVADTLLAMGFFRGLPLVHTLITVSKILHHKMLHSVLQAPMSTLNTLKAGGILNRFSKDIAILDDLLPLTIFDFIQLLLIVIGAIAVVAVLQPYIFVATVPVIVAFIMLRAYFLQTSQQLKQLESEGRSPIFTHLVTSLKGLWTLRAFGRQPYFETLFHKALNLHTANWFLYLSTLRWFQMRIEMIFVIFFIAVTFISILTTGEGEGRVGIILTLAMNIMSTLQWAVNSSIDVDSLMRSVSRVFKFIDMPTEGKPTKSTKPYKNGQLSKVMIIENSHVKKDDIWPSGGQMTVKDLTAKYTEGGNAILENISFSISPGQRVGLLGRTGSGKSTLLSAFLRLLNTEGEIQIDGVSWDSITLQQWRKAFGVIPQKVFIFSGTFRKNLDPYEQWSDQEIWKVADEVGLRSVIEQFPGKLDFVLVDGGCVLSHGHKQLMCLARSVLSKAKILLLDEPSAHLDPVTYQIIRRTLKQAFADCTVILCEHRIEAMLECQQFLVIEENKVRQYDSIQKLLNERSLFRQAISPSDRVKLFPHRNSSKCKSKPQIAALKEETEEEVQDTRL

As for `Cc1cc2c(-c3ccccc3)cc(=O)oc2c2c(C)coc12` [4-PhDMA], the “F508del CFTR rescue (corrector) activity” value is listed as “active; also recorded: most active derivatives of the series”. Moreover, for the setting “listed as 12”, the “F508del CFTR rescue (corrector) activity” value is listed as “promising F508del CFTR rescue ability”. Also, the “reduction in YFP fluorescence induced by iodide influx compared to vehicle” value (48 h treatment, representative time courses) is reported as “greater reduction in YFP fluorescence”.
Regarding `Cc1cc(=O)oc2c1cc(-c1ccccc1)c1occ(C)c12` [6-PhDMA], the “F508del CFTR rescue (corrector) activity” value is “inactive”.
As for `Cc1cc(=O)oc2c1cc(-c1ccc(N)cc1)c1occ(C)c12` [pANDMA], the “F508del CFTR rescue (corrector) activity” value is “most active derivatives of the series”. Also, the “F508del CFTR rescue (corrector) activity” value (listed as 25) is given as “promising F508del CFTR rescue ability”.
